According to ChEMBL document CHEMBL3045554, “Synthesis and antimicrobial screening of N-(1-methyl-1H-pyrazole-4-carbonyl)-thiourea derivatives” (2012):
Values after ≈ are worked out from the molar mass of the structure shown. Active and inactive are the calls of the source. No cut-off for these calls is given here.

How the values were obtained:
[1] = system: Klebsiella pneumoniae; assay: Effect on amylase production in Klebsiella pneumoniae 126/2007 after 24 hr by starch hydrolysis assay; assay type: functional, organism-based
[2] = system: Escherichia coli; assay: Effect on lipase production in Escherichia coli 637/2007 after 7 days; assay type: functional, organism-based
[3] = system: Acinetobacter baumannii; assay: Effect on DNase production in Acinetobacter baumannii 15896 after 24 hr; assay type: functional, organism-based
[4] = system: Escherichia coli; assay: Effect on amylase production in Escherichia coli 637/2007 after 24 hr by starch hydrolysis assay; assay type: functional, organism-based
[5] = system: Bacillus subtilis; assay: Inhibition of caseinase production in Bacillus subtilis 10.10.2006 after 24 hr by casein hydrolysis assay; assay type: functional, organism-based
[6] = system: Pseudomonas aeruginosa; assay: Effect on gelatinase production in Pseudomonas aeruginosa 5541 after 24 hr by gelatin hydrolysis test; assay type: functional, organism-based
[7] = system: Enterococcus faecalis; assay: Antimicrobial activity against Enterococcus faecalis 13773 by microdilution method; assay type: functional
[8] = system: Enterococcus faecalis; assay: Effect on esculethol production in Enterococcus faecalis 13773 after 24 hr by esculin hydrolysis test; assay type: functional, organism-based
[9] = system: Escherichia coli; assay: Antimicrobial activity against Escherichia coli 637/2007 by microdilution method; assay type: functional
[10] = system: Bacillus subtilis; assay: Effect on lipase production in Bacillus subtilis 10.10.2006 after 7 days; assay type: functional, organism-based
[11] = system: Bacillus subtilis; assay: Effect on gelatinase production in Bacillus subtilis 10.10.2006 after 24 hr by gelatin hydrolysis test; assay type: functional, organism-based
[12] = system: Enterococcus faecalis; assay: Effect on lipase production in Enterococcus faecalis 13773 after 7 days; assay type: functional, organism-based
[13] = system: Escherichia coli; assay: Effect on DNase production in Escherichia coli 637/2007 after 24 hr; assay type: functional, organism-based
[14] = system: Enterococcus faecalis; assay: Effect on gelatinase production in Enterococcus faecalis 13773 after 24 hr by gelatin hydrolysis test; assay type: functional, organism-based
[15] = system: Klebsiella pneumoniae; assay: Inhibition of caseinase production in Klebsiella pneumoniae 126/2007 after 24 hr by casein hydrolysis assay; assay type: functional, organism-based
[16] = system: Staphylococcus aureus; assay: Antimicrobial activity against Staphylococcus aureus by microdilution method; assay type: functional
[17] = system: Acinetobacter baumannii; assay: Inhibition of caseinase production in Acinetobacter baumannii 15896 after 24 hr by casein hydrolysis assay; assay type: functional, organism-based
[18] = system: Bacillus subtilis; assay: Effect on DNase production in Bacillus subtilis 10.10.2006 after 24 hr; assay type: functional, organism-based
[19] = system: Klebsiella pneumoniae; assay: Antimicrobial activity against Klebsiella pneumoniae 126/2007 by microdilution method; assay type: functional
[20] = system: Acinetobacter baumannii; assay: Effect on gelatinase production in Acinetobacter baumannii 15896 after 24 hr by gelatin hydrolysis test; assay type: functional, organism-based
[21] = system: Klebsiella pneumoniae; assay: Inhibition of lecithinase production in Klebsiella pneumoniae 126/2007 after 7 days; assay type: functional, organism-based
[22] = system: Staphylococcus aureus; assay: Effect on esculethol production in Staphylococcus aureus after 24 hr by esculin hydrolysis test; assay type: functional, organism-based
[23] = system: Enterococcus faecalis; assay: Effect on DNase production in Enterococcus faecalis 13773 after 24 hr; assay type: functional, organism-based
[24] = system: Bacillus subtilis; assay: Antimicrobial activity against Bacillus subtilis 10.10.2006 by microdilution method; assay type: functional
[25] = system: Escherichia coli; assay: Effect on esculethol production in Escherichia coli 637/2007 after 24 hr by esculin hydrolysis test; assay type: functional, organism-based
[26] = system: Pseudomonas aeruginosa; assay: Effect on amylase production in Pseudomonas aeruginosa 5541 after 24 hr by starch hydrolysis assay; assay type: functional, organism-based
[27] = system: Escherichia coli; assay: Inhibition of lecithinase production in Escherichia coli 637/2007 after 7 days; assay type: functional, organism-based
[28] = system: Escherichia coli; assay: Effect on gelatinase production in Escherichia coli 637/2007 after 24 hr by gelatin hydrolysis test; assay type: functional, organism-based
[29] = system: Staphylococcus aureus; assay: Effect on lipase production in Staphylococcus aureus after 7 days; assay type: functional, organism-based
[30] = system: Klebsiella pneumoniae; assay: Effect on DNase production in Klebsiella pneumoniae 126/2007 after 24 hr; assay type: functional, organism-based
[31] = system: Pseudomonas aeruginosa; assay: Inhibition of lecithinase production in Pseudomonas aeruginosa 5541 after 7 days; assay type: functional, organism-based
[32] = system: Klebsiella pneumoniae; assay: Effect on gelatinase production in Klebsiella pneumoniae 126/2007 after 24 hr by gelatin hydrolysis test; assay type: functional, organism-based
[33] = system: Acinetobacter baumannii; assay: Inhibition of lecithinase production in Acinetobacter baumannii 15896 after 7 days; assay type: functional, organism-based
[34] = system: Staphylococcus aureus; assay: Effect on gelatinase production in Staphylococcus aureus after 24 hr by gelatin hydrolysis test; assay type: functional, organism-based
[35] = system: Enterococcus faecalis; assay: Inhibition of caseinase production in Enterococcus faecalis 13773 after 24 hr by casein hydrolysis assay; assay type: functional, organism-based
[36] = system: Acinetobacter baumannii; assay: Antimicrobial activity against Acinetobacter baumannii 15896 by microdilution method; assay type: functional
[37] = system: Pseudomonas aeruginosa; assay: Antimicrobial activity against Pseudomonas aeruginosa 5541 by microdilution method; assay type: functional
[38] = system: Enterococcus faecalis; assay: Effect on amylase production in Enterococcus faecalis 13773 after 24 hr by starch hydrolysis assay; assay type: functional, organism-based
[39] = system: Pseudomonas aeruginosa; assay: Inhibition of caseinase production in Pseudomonas aeruginosa 5541 after 24 hr by casein hydrolysis assay; assay type: functional, organism-based
[40] = system: Pseudomonas aeruginosa; assay: Effect on DNase production in Pseudomonas aeruginosa 5541 after 24 hr; assay type: functional, organism-based
[41] = system: Enterococcus faecalis; assay: Inhibition of lecithinase production in Enterococcus faecalis 13773 after 7 days; assay type: functional, organism-based
[42] = system: Acinetobacter baumannii; assay: Effect on lipase production in Acinetobacter baumannii 15896 after 7 days; assay type: functional, organism-based
[43] = system: Staphylococcus aureus; assay: Effect on amylase production in Staphylococcus aureus after 24 hr by starch hydrolysis assay; assay type: functional, organism-based
[44] = system: Acinetobacter baumannii; assay: Effect on amylase production in Acinetobacter baumannii 15896 after 24 hr by starch hydrolysis assay; assay type: functional, organism-based
[45] = system: Bacillus subtilis; assay: Effect on amylase production in Bacillus subtilis 10.10.2006 after 24 hr by starch hydrolysis assay; assay type: functional, organism-based
[46] = system: Bacillus subtilis; assay: Effect on esculethol production in Bacillus subtilis 10.10.2006 after 24 hr by esculin hydrolysis test; assay type: functional, organism-based
[47] = system: Bacillus subtilis; assay: Inhibition of lecithinase production in Bacillus subtilis 10.10.2006 after 7 days; assay type: functional, organism-based
[48] = system: Pseudomonas aeruginosa; assay: Effect on lipase production in Pseudomonas aeruginosa 5541 after 7 days; assay type: functional, organism-based
[49] = system: Staphylococcus aureus; assay: Effect on DNase production in Staphylococcus aureus after 24 hr; assay type: functional, organism-based
[50] = system: Klebsiella pneumoniae; assay: Effect on esculethol production in Klebsiella pneumoniae 126/2007 after 24 hr by esculin hydrolysis test; assay type: functional, organism-based
[51] = system: Staphylococcus aureus; assay: Inhibition of lecithinase production in Staphylococcus aureus after 7 days; assay type: functional, organism-based
[52] = system: Acinetobacter baumannii; assay: Effect on esculethol production in Acinetobacter baumannii 15896 after 24 hr by esculin hydrolysis test; assay type: functional, organism-based
[53] = system: Pseudomonas aeruginosa; assay: Effect on esculethol production in Pseudomonas aeruginosa 5541 after 24 hr by esculin hydrolysis test; assay type: functional, organism-based
[54] = system: Escherichia coli; assay: Inhibition of caseinase production in Escherichia coli 637/2007 after 24 hr by casein hydrolysis assay; assay type: functional, organism-based
[55] = system: Staphylococcus aureus; assay: Inhibition of caseinase production in Staphylococcus aureus after 24 hr by casein hydrolysis assay; assay type: functional, organism-based
[56] = system: Klebsiella pneumoniae; assay: Effect on lipase production in Klebsiella pneumoniae 126/2007 after 7 days; assay type: functional, organism-based

CCCc1ccccc1NC(=S)NC(=O)c1cnn(C)c1
Activity [1]: inactive | Activity [2]: inactive | Activity [3]: inactive | Activity [4]: inactive | inhibition [5]: inactive | Activity [6]: inactive | MIC [7]: 250 µg/mL (≈ 827 µM) | Activity [8]: inactive | MIC [9]: 1000 µg/mL (≈ 3310 µM) | Activity [10]: inactive | Activity [11]: inactive | Activity [12]: inactive | Activity [13]: inactive | Activity [14]: inactive | inhibition [15]: inactive | MIC [16]: 500 µg/mL (≈ 1650 µM) | inhibition [17]: inactive | Activity [18]: inactive | MIC [19]: 500 µg/mL (≈ 1650 µM) | Activity [20]: inactive | inhibition [21]: inactive | Activity [22]: inactive | Activity [23]: inactive | MIC [24]: 500 µg/mL (≈ 1650 µM) | Activity [25]: inactive | Activity [26]: inactive | inhibition [27]: inactive | Activity [28]: inactive | Activity [29]: inactive | Activity [30]: inactive | inhibition [31]: inactive | Activity [32]: inactive | inhibition [33]: inactive | Activity [34]: inactive | inhibition [35]: inactive | MIC [36]: 250 µg/mL (≈ 827 µM) | MIC [37]: 1000 µg/mL (≈ 3310 µM) | Activity [38]: inactive | inhibition [39]: inactive | Activity [40]: inactive | inhibition [41]: inactive | Activity [42]: inactive | Activity [43]: inactive | Activity [44]: inactive | Activity [45]: inactive | Activity [46]: inactive | inhibition [47]: inactive | Activity [48]: inactive | Activity [49]: inactive | Activity [50]: inactive | inhibition [51]: inactive | Activity [52]: inactive | Activity [53]: inactive | inhibition [54]: Active | inhibition [55]: inactive | Activity [56]: inactive
